Key:
[1] = system: type I collagen (ColI); test: Immunohistological examination of type I collagen expression in the mesangium, anti-Thy 1 nephritis rat; format: in vivo; details: 0.4 μg/kg intravenously every two days; day 7; immunohistochemistry
Procedure: (§1) An anti-Thy 1 antibody (OX-7 purchased from CEDARLANE, Ontario, Canada) was administered into the tail vein of 6-week-old male Wistar rats at 1 mg/kg to induce anti-Thy 1 nephritis. Next day after OX-7 administration, 22-oxa-1α,25-dihydroxyvitamin D3 was intravenously administered at 0.4 μg/kg every two days, and on day 7 after administration, serum, urine and renal tissue were collected.
(§2) For comparison, 1α,25-dihydroxyvitamin D3 was administered in the same manner instead of 22-oxa-1α,25-dihydroxyvitamin D3. Rats not treated with the anti-Thy 1 antibody were used as normal controls. Rats treated with the anti-Thy 1 antibody alone without any vitamin D derivative were used as disease controls.
(§3) In the renal tissue, the expression of type I collagen (ColI) and type IV collagen (ColIV) in the mesangium was immunohistologically examined (FIGS. 4-11). Staining was performed on 4 μm sections using an ABC Elite peroxidase staining kit (Vector Lab., Burlingame, Calif., U.S.A.) according to the manufacturer's instructions. The primary antibodies used were a guinea pig anti-rat type I collagen antibody (Boehringer Ingelheim, Co., Ltd., Ingelheim, Germany) and a rabbit anti-rat type IV collagen antibody (Boehringer Ingelheim, Co., Ltd., Ingelheim, Germany).

[2] = system: type IV collagen (ColIV); test: Immunohistological examination of type IV collagen expression in the mesangium, anti-Thy 1 nephritis rat; format: in vivo; details: 0.4 μg/kg intravenously every two days; day 7; immunohistochemistry
Procedure: as §1, §2, §3

[3] = system: rat model of anti-Thy 1 antibody-induced nephritis; test: Urinary albumin by ELISA in anti-Thy 1 nephritis rat; format: in vivo; details: 0.4 μg/kg intravenously every two days; day 7; FIG. 13
Procedure: as §1, §2
In addition, serum calcium (Ca) was determined with an autoanalyzer (AUTOANALYZER, HITACHI 7170, Tokyo, Japan) and urinary albumin (uALB) was determined with an ELISA kit NEPHRAT II (EXOCELL, INC) (FIGS. 12 and 13).

[4] = system: human mesangial cells; details: literature report; cited from earlier work
[5] = system: rat model of anti-Thy 1 antibody-induced nephritis; test: Renal histology (glomerular cell count, glomerulosclerosis index, glomerular volume) in rat model of anti-Thy 1 antibody-induced nephritis; format: in vivo; details: 0.4 μg/kg intravenously every two days from the day after OX-7, day 7; for glomerular cell count: FIG. 1; for glomerular volume: FIG. 3; for glomerulosclerosis index: PAM stained samples, FIG. 2
Source text: The pharmacological effect of 22-oxa-1α,25-dihydroxyvitamin D3 used as an active ingredient in the present invention can be evaluated on a rat model of a anti-Thy 1 antibody-induced nephritis characterized by showing increased mesangial cell proliferation and mesangial matrix production after administration of an anti-Thy 1 antibody. The pharmacological effect of test compounds can be evaluated by administering an anti-Thy 1 antibody to such a rat model followed by the test compounds, collecting renal tissue at an appropriate time and determining the glomerular cell count or glomerulosclerosis index or determining the expression of collagen by a standard method such as an immunohistochemical technique.
as §1, §2
In the renal tissue, the glomerular cell count, glomerulosclerosis index and glomerular volume were determined (FIGS. 1, 2 and 3). The “glomerular cell count” was determined by counting every cell in every measurable glomerulus on hematoxylin-eosin stained samples. The “glomerulosclerosis index” was evaluated on PAM (periodic acid-methenamine-silver) stained samples according to the method of Raji et al. The “glomerular volume” was determined by using NIH image to calculate the volume of glomeruli read by an image analyzer.

[6] = described in Japanese Patent No. 2854600; cited from earlier work
[7] = literature report; cited from earlier work

Compound | expression of ColI in the mesangium [1] | expression of ColIV in the mesangium [2] | uALB levels (urinary albumin) [3] | antiproliferative effect on human mesangial cells [4] | glomerular cell count [5] | glomerular volume [5] | glomerulosclerosis index [5] | urinary protein excretion [6] | differentiation-inducing effect [7] | hypercalcemia [7]
C=C1/C(=C\C=C2/CCC[C@]3(C)[C@@H]([C@H](C)CCCC(C)(C)O)CC[C@@H]23)C[C@@H](O)C[C@@H]1O [1α,25-dihydroxyvitamin D3, reference compound] | clearly inhibited | clearly inhibited | significantly suppressed | antiproliferative effect | significantly suppressed | no effect | significantly suppressed | – | – | –
C=C1/C(=C\C=C2/CCC[C@]3(C)[C@@H]([C@H](C)OCCC(C)(C)O)CC[C@@H]23)C[C@@H](O)C[C@@H]1O [22-oxa-1α,25-dihydroxyvitamin D3, 1α,3β-dihydroxy-20α-(3-hydroxy-3-methylbutyloxy)-9,10-seco-5,7,10 (19)-pregnatriene] | clearly inhibited | clearly inhibited | significantly suppressed | – | significantly suppressed | no effect | significantly suppressed | inhibits | show a differentiation-inducing effect | without causing hypercalcemia

From patent US6864247B2, “Therapeutic agents for glomerulosclerosis” (priority 1999, dated 2005)
